Here are results for one compound from ChEMBL document CHEMBL3045653, “A novel amino acid substitution Ala-122-Tyr in ALS confers high-level and broad resistance across ALS-inhibiting herbicides” (Pest Manag Sci, 2012).

This experiment addresses T1, Acetolactate synthase (Raphanus raphanistrum, UniProt J7HAW4).
T1 sequence (J7HAW4 whole entry): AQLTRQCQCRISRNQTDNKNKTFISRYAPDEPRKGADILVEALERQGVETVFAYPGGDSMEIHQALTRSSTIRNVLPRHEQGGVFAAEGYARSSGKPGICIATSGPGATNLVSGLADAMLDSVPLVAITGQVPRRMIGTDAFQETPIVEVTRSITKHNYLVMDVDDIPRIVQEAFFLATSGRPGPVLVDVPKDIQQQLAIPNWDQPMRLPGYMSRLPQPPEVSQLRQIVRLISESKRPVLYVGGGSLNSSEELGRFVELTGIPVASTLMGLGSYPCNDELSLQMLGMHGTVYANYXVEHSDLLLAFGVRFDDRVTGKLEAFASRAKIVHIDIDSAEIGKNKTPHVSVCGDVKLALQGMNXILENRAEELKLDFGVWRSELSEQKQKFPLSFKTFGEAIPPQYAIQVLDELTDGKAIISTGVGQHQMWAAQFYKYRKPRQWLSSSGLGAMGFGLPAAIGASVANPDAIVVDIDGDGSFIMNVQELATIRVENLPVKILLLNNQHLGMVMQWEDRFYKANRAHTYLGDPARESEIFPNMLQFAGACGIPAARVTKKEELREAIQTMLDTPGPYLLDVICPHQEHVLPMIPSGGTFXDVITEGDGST
The experiment is described as follows: Inhibition of ALS in ALS-herbicide-susceptible Raphanus raphanistrum […] (wild radish). The note with it: pooled result: one value given for 2 cell lines, strains, targets or settings; read-out: I50.

Take `Cc1cc(C)nc(NC(=O)NS(=O)(=O)c2ccccc2C(=O)O)n1` [SULFOMETURON]: the IC50 worked out at 23 nM.
